Data taken from patent US20160312240A1, “MODIFIED PYR/PYL RECEPTORS ACTIVATED BY ORTHOGONAL LIGANDS” (The Regents of the University of California, priority 2010, published 2016).

Assays:
[1] = tested on: PYR/PYL-PP2C protein-protein interactions; experiment: Yeast competition screen: reduction of ABA-promoted PYR/PYL-PP2C interaction; type: cell-based; conditions: 100 nM ABA and 100 μM test chemical (1000-fold excess), yeast strains
Source text: To isolate PYR1 orthogonal receptors, a two-step process was used. First, a large collection of compounds was screened to identify compounds that weakly interact with receptors, defined as such by their ability to displace receptor-bound ABA in competition experiments. Once weak binders were identified, those with the most desirable properties from an end-use perspective were used as targets for iterative mutagenesis and selection schemes. Pre-selection of weak-binding ligands improves the frequency of isolating new receptor proteins, because fewer alterations of the ligand binding site are required to achieve molecular recognition. However, pre-selection is not a prerequisite for success.
Pre-selection of ligands. 74 structurally diverse agrochemicals were obtained, selected from a larger set of approximately 1500 commercially available agrochemicals. These 74 compounds were tested for their ability to reduce ABA-promoted PYR/PYL-PP2C protein-protein interactions in suitable yeast strains when added at 1000-fold excess relative to ABA (i.e. 100 nM ABA and 100 μM test chemical).

[2] = molecular target: T1, 6×-His-PYR1(27-18) (S47P, K59R, Y120H) (Arabidopsis thaliana, UniProt O49686, K59R/S47P/Y120H); experiment: In vitro PP2C phosphatase activity assay (receptor activation = inhibition of PP2C); type: biochemical; conditions: mutant 27-18; increasing concentrations; 10 mM Mn++ buffer; FIG. 1
T1 construct: 6x-His (N); made in house
T1 sequence (O49686 whole entry S47P/K59R/Y120H): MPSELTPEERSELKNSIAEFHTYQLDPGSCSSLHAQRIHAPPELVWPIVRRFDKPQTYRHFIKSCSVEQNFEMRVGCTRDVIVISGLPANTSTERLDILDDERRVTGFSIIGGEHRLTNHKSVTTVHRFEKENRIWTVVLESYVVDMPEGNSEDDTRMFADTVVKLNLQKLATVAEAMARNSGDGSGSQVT
T1 sequence (Q9CAJ0 23-511, stated change not applied, further chain): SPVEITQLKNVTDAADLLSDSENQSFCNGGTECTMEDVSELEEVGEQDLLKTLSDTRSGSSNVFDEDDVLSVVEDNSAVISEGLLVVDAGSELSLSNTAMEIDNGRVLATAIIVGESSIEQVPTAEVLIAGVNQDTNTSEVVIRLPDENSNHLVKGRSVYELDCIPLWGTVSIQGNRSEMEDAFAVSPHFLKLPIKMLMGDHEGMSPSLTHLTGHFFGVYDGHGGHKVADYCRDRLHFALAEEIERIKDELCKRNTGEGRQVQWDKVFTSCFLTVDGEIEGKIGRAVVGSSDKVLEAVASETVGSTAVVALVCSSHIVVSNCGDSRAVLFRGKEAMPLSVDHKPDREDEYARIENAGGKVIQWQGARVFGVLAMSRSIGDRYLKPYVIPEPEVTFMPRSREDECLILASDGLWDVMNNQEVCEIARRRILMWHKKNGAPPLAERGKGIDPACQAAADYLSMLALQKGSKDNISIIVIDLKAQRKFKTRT
Experimental: (§1) FIGS. 1A-1B. PYR1 mutant 27-18 confers responsiveness to fenhexamid but not ABA. Representative PYR1 mutant 27-18 (comprising S47P, K59R, and Y120H substitution mutations) was tested for responsiveness to abscisic acid (“ABA”) (FIG. 1A) and fenhexamid (FIG. 1B) at increasing concentrations as compared to a wild-type PYR1 control using an in vitro PP2C phosphatase activity assay.
(§2) To probe orthogonal receptor-ligand interactions further, recombinant protein was expressed for the fenhexamid-responsive mutant 27-18, which has three mutations in PYR1. 6×-His-PYR1(27-18) protein was expressed and purified alongside wild-type PYR1 protein. Both proteins were tested for their ability to inhibit PP2C activity in response to increasing concentrations of either ABA or fenhexamid using phosphatase activity assays, in which activation of the PYR/PYL receptor is monitored by inhibition of PP2C activity (FIG. 1).

wild-type PYR1 protein = molecular target: T2, wild-type PYR1 protein (Arabidopsis thaliana, UniProt O49686); experiment: as above; type: biochemical; conditions: increasing concentrations, 10 mM Mn++ buffer, FIG. 1
T2 construct: made in house
T2 sequence (O49686 whole entry): as the sequence (O49686 whole entry S47P/K59R/Y120H) above, with P47S, R59K, H120Y counted along it
T2 sequence (Q9CAJ0 23-511 partner): as the sequence (Q9CAJ0 23-511, stated change not applied, further chain) above
Experimental: as §1, §2

PYR1 mutant 74A-1 = molecular target: T3, PYR1 mutant 74A-1 (Arabidopsis thaliana, UniProt O49686, H60R/K59R/N151D); experiment: Yeast two-hybrid assay confirming bromoxynil responsiveness; type: cell-based; conditions: 10, 25, and 50 μM (applied 5, 10, 25, 50 μM)
T3 construct: expressed in transfected cells
T3 sequence (Q9CAJ0 23-511): as the sequence (Q9CAJ0 23-511, stated change not applied, further chain) above
T3 sequence (O49686 whole entry K59R/H60R/N151D): as the sequence (O49686 whole entry S47P/K59R/Y120H) above, with P47S, H60R, H120Y, N151D counted along it
Experimental: (§3) Plasmids for three representative mutant clones (27-9, 27-18, and 27-36) were isolated from the primary yeast cells and transformed into a pAD-HAB1 expressing YRG-2 reporter strain (Park et al., Science 324:1068-1071 (2009)) in which Ga14 drives expression of a LacZ reporter gene to allow colorimetric indication of agonist response. Fenhexamid was applied at concentrations of 1, 5, 10, 25, and 50 μM. […] Mutant 27-36 was responsive to fenhexamid at 25 and 50 μM concentrations.
(§4) Screens for bromoxynil (Table 2), dichlobenil (Table 3), and benoxacor (Table 4) responsive PYR1 mutants were conducted as described above for fenhexamid, each utilizing 200 μM test compound and the A′ library, generated as described above. Yeast two-hybrid assay confirmed bromoxynil responsiveness for representative mutant clones 74A-1 and 74A-2. Bromoxynil was applied at concentrations of 5, 10, 25, and 50 μM. Both mutants 74A-1 and 74A-2 were responsive to bromoxynil at concentrations of 10, 25, and 50 μM.

PYR1 mutant 74A-2 = molecular target: T4, PYR1 mutant 74A-2 (Arabidopsis thaliana, UniProt O49686, K59R/S92T); experiment: as above; type: cell-based; conditions: 10, 25, and 50 μM (applied 5, 10, 25, 50 μM)
T4 construct: expressed in transfected cells; host or cells: Saccharomyces cerevisiae two-hybrid reporter strain expressing pAD-HAB1 (YRG-2 is named only for the fenhexamid confirmation)
T4 sequence (O49686 whole entry K59R/S92T): as the sequence (O49686 whole entry S47P/K59R/Y120H) above, with P47S, S92T, H120Y counted along it
T4 sequence (Q9CAJ0 23-511, further chain): as the sequence (Q9CAJ0 23-511, stated change not applied, further chain) above
Experimental: as §3, §4

PYR1 = PYR1 (Arabidopsis thaliana, UniProt O49686); conditions: cited from earlier work
Chain of PYR1 (O49686 whole entry): as the sequence (O49686 whole entry S47P/K59R/Y120H) above, with P47S, R59K, H120Y counted along it

PYL2 = PYL2 (Arabidopsis thaliana, UniProt O80992); conditions: cited from earlier work
Chain of PYL2 (O80992 whole entry): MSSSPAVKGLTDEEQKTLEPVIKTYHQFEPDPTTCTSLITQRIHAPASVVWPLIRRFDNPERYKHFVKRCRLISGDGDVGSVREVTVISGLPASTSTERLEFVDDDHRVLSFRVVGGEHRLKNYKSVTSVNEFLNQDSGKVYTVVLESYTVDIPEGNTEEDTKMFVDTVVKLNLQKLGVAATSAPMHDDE

PYL1 = PYL1 (Arabidopsis thaliana, UniProt Q8VZS8); conditions: cited from earlier work
Chain of PYL1 (Q8VZS8 whole entry): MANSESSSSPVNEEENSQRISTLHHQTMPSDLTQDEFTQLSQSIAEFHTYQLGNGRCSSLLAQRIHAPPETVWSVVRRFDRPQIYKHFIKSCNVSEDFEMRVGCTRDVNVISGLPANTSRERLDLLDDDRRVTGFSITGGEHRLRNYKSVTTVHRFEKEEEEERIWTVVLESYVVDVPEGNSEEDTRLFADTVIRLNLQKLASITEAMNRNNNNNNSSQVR

PYR1 mutant BTH-9 = molecular target: T5, PYR1 mutant BTH-9 (Arabidopsis thaliana, UniProt O49686, F159L); experiment: Yeast two-hybrid assay confirming BTH responsiveness; type: cell-based; conditions: 50, 100, and 200 μM (applied 25, 50, 100, 200 μM)
T5 construct: expressed in transfected cells; host or cells: Saccharomyces cerevisiae two-hybrid reporter strain expressing pAD-HAB1 (strain not restated for BTH)
T5 sequence (O49686 whole entry F159L): as the sequence (O49686 whole entry S47P/K59R/Y120H) above, with P47S, R59K, H120Y, F159L counted along it
T5 sequence (Q9CAJ0 23-511 partner): as the sequence (Q9CAJ0 23-511, stated change not applied, further chain) above
Experimental: as §3
Given the plasticity of PYR1 indicated by these experiments, we sought to establish if an orthogonal receptor could be isolated for a target ligand that was not prescreened for weak binding using the yeast competition assays described above. The same screening methodology as described above was used to screen for mutants that respond to BTH (acibenzolar-s-methyl). […] Yeast two-hybrid assay confirmed BTH responsiveness for representative mutant clone BTH-9. […] was applied at concentrations of 25, 50, 100, and 200 μM, and mutant BTH-9 was responsive to BTH at concentrations of 50, 100, and 200 μM. Thus, the plasticity of PYR1 enables many orthogonal receptor variants to be isolated.

wild-type PYR1 (WT) = wild-type PYR1 (WT) (Arabidopsis thaliana, UniProt O49686); experiment: Responsiveness of PYR1 K59 mutants to ABA and dichlobenil; type: cell-based
Chain of wild-type PYR1 (WT) (O49686 whole entry): as the sequence (O49686 whole entry S47P/K59R/Y120H) above, with P47S, R59K, H120Y counted along it
Chain of wild-type PYR1 (WT) (Q9CAJ0 23-511 partner): as the sequence (Q9CAJ0 23-511, stated change not applied, further chain) above
Experimental: (§5) To test these two hypotheses, a series of K59 mutants were constructed in PYR1 and examined for their sensitivity to the native ligand ABA and the orthogonal ligand dichlobenil (Table 6). Dichlobenil was chosen as a model orthogonal ligand for these studies because it was observed that it is a weak PYR/PYL agonist (i.e., it can weakly activate receptors at concentrations of 200 μM or higher). Dichlobenil therefore provides a useful test molecule with which to probe a mutant's sensitivity to an orthogonal ligand.

PYR/PYL receptors = experiment: Observed weak agonism of PYR/PYL receptors; conditions: weak PYR/PYL agonist
Experimental: as §5

N#Cc1cc(Cl)c(O)c(Cl)c1 [chloroxynil]
ability to reduce ABA-promoted PYR/PYL-PP2C protein-protein interactions [1]: compete for ABA

CC1=CC(=O)CC(C)(C)[C@@]1(O)/C=C/C(C)=C\C(=O)O [ABA, abscisic acid]
Receptor activation (inhibition of PP2C activity) [2]: failed to activate
Receptor activation (inhibition of PP2C activity) (wild-type PYR1 protein): efficiently activated

N#Cc1cc(Br)c(O)c(Br)c1 [bromoxynil]
Responsiveness to bromoxynil (yeast two-hybrid) (PYR1 mutant 74A-1): responsive
Responsiveness to bromoxynil (yeast two-hybrid) (PYR1 mutant 74A-2): responsive
ability to reduce ABA-promoted PYR/PYL-PP2C protein-protein interactions [1]: compete for ABA

O=c1oc2ccccc2c(O)c1C1CCCc2ccccc21 (centres unmarked) [coumatetralyl]
ability to reduce ABA-promoted PYR/PYL-PP2C protein-protein interactions [1]: compete for ABA

O=S(=O)(NCc1ccccn1)c1ccc(Br)c2ccccc12 [pyrabactin]
Responsiveness to pyrabactin (PYR1): strong responsiveness
Responsiveness to pyrabactin (PYL2): do not
Responsiveness to pyrabactin (PYL1): strong responsiveness

CSC(=O)c1cccc2nnsc12 [BTH, acibenzolar-s-methyl]
Responsiveness to BTH (yeast two-hybrid) (PYR1 mutant BTH-9): responsive

N#Cc1c(Cl)cccc1Cl [dichlobenil]
Responsiveness, Dichlobenil [50 μM] (wild-type PYR1 (WT)): not activated
Concentration at which receptors are weakly activated (PYR/PYL receptors): ≥ 200 µM
ability to reduce ABA-promoted PYR/PYL-PP2C protein-protein interactions [1]: compete for ABA
